Measured values: publication PMC12549899 (Nature Communications, 2025)
Several values for one entry are separate records, joined by “and”; a condition that tells them apart may be missing. Equal values may be shown once.

Target: T1, DrOTOP1 G130W (Danio rerio, UniProt Q7ZWK8, G130W)
T1 construct: A previously generated codon-optimized full-length DrOTOP1[8]; (UniProt: Q7ZWK8) construct; expressed in transfected cells; host or cells: HEK-293 (CRL-1573, ATCC)
T1 sequence (Q7ZWK8 1-586 G130W): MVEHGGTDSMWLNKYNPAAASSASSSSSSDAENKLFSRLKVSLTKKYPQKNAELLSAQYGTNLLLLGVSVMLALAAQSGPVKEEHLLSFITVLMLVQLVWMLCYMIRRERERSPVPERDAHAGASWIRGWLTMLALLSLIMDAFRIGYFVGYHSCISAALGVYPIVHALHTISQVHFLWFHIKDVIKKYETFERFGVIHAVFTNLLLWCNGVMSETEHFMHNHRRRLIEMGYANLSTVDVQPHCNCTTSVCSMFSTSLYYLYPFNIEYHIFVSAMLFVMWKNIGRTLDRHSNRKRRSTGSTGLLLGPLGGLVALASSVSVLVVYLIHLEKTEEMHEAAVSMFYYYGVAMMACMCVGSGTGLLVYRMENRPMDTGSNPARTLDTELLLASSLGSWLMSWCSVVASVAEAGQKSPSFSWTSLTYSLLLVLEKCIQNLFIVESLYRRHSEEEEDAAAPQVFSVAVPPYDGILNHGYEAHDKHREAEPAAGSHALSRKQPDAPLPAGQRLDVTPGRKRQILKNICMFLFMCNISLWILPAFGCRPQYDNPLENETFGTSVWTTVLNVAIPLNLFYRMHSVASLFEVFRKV
Assay: Whole-cell patch-clamp, inhibition of acid-evoked currents, DrOTOP1 G130W (outer site)
Format: cell-based, zebrafish (Danio rerio)
Excerpt: To functionally test the significance of the two binding sites identified by cryo-EM, we generated point mutations of DrOTOP1 using the binding poses and conformational changes observed in DrOTOP1_C2.2 to guide our mutations. As per the binding pose that best fits our cryo-EM density, C2.2 forms the following interactions in the outer site: hydrophobic packing against many non-polar residues W126, G130, M133, L134, F271, F570, and M573, and π-stacking with W532 (Fig. 5A). In addition, C2.2 could potentially form H-bonds with E267, if the sidechain is protonated or a water bridge is present, and with H574 if it moves closer (Fig. 5A). Likewise, C2.36 presents a heterocyclic nitrogen that can potentially form a H-bond with E267, similarly, provided a protonation or water bridge is present (Fig. 5B). In addition, C2.36 forms a T-shaped π-stacking interaction with H574, whose sidechain has rotated 90 degrees (compared to DrOTOP1_apo), presumably to accommodate the interaction (Fig. 5B). Considering other inhibitors discovered from the second round of screening, many contain functional groups like the carbonyl groups of Group 1 molecules and the heterocyclic nitrogen atoms of Group 2 molecules (Supplementary Fig. 3E), that can potentially form similar H-bonds with E267 as C2.2 and C2.36, assuming the binding modes are similar. In the central site, C2.2 binds with the following interactions: hydrophobic packing with residues V201, F271, A274, V278, and A388, π-stacking with F277, and H-bonding with E384 (Fig. 5C).
Each non-aromatic residue was mutated to tryptophan, which was expected to cause steric occlusion. […] This seemed appropriate given the small number of H-bonds in these pockets, the ambiguity of how the inhibitors fit the density, and the prevalence of hydrophobic packing interactions (Fig. 5A–C).
HEK-293 cells (CRL-1573, ATCC) were cultured in DMEM (Thermofisher 11995073) containing 10% fetal bovine serum (Life Technology 16000044) and Penicillin-Streptomycin (100 I.U./mL) and (100 µg/mL), respectively. Cells were transfected with WT DrOTOP1 or mutant DrOTOP1 channels in 35 mm petri dishes, with ~ 500 ng DNA and 2 μL TransIT-LT1 transfection reagent (Mirus Bio Corporation, Cat # MIR2300) following the manufacturer’s protocol. All constructs were subcloned into a pcDNA3.1 vector that adds an N-terminal fusion tag consisting of an octahistidine tag followed by eGFP, a Gly-Thr-Gly-Thr linker and a 3C protease cleavage site ([…]) followed by WT DrOTOP1, WT mOTOP1, WT hOTOP1, or mutated DrOTOP1. Point mutations were generated via In-Fusion Cloning (Takara) using single-stranded DNA primers generated through IDT and sequence confirmed by Sanger sequencing (GeneWiz).
Whole-cell patch-clamp recording was performed as previously described[6],[22],[25]. Recordings were made with an Axopatch 200B amplifier, digitized with a Digidata 1322a 16-bit data acquisition system, acquired with pClamp 8.2 and analyzed with Clampfit 10 (Molecular Devices). Recordings were sampled at 5 kHz and filtered at 1 kHz. Patch Pipettes with resistance of […] were fabricated from borosilicate glass, and only recordings with a giga-Ohm seal were used in analysis. Membrane potential was held at −80 mV for the duration of recordings. At the beginning of recordings and between, cells were washed with Tyrode’s solution (see below). Once a giga-Ohm seal was reached, cells were lifted and placed in front of microcapillary tubes controlled by a Fast-Step perfusion system (Warner Instruments) so that extracellular solutions could be rapidly exchanged during each experiment.
Standard Tyrode’s solution consisted of 145 mM NaCl, 5 mM KCl, MgCl2, 2 mM CaCl2, 20 mM D-Glucose, and 10 mM HEPES (for pH 7.4). All other extracellular patch-clamp solutions contained 160 mM NMDG-Cl, 2 mM CaCl2, and the following buffers: 10 mM HEPES (for pH 7.4), 10 mM MES (for pH 6.5-5.5), 10 mM CHES for pH 10, and 10 mM HomoPIPES for (pH 5.0). pH adjusted with HCl. […]

Row | SMILES | inhibition at 30 µM (30 µM, DrOTOP1 G130W, single cells) | inhibition at 100 µM (DrOTOP1 G130W, single cells) | Hill coefficient (DrOTOP1 G130W) | IC50 (DrOTOP1 G130W, pH 5.5) | Mean, Fig 5N (G130W + C2.2, n=5) | Disruption of inhibitory activity by site-directed mutagenesis of outer site residues (outer site mutants compared with WT)
1 | C=C(C)COc1ccccc1NC(=O)c1nc[nH]c1C [C2.2] | 15.3% | 42.4% | 1.123 | 130 µM and 138 µM | 15.24 | ≤ 20 fold
2 | O=C(/C(=N\O)c1ccccc1)c1ccccc1 [C11, benzil monoxime] | – | 62.7% | – | – | – | –
